Test results published in the NIST ThermoML archive (doi:10.1016/j.jct.2018.01.015).
± gives the expanded uncertainty stated by the source.

Conditions: Gas, rotating-body viscometer for gases

N#N [nitrogen]
Conditions	viscosity [mPa·s]
253.21 K, 100.8 kPa	0.01561 ± 3e-05
253.21 K, 200.9 kPa	0.01564 ± 3e-05
253.21 K, 400.7 kPa	0.01566 ± 3e-05
253.21 K, 600.8 kPa	0.01571 ± 3e-05
253.21 K, 800.8 kPa	0.01574 ± 3e-05
253.21 K, 1000.9 kPa	0.01579 ± 3e-05
253.21 K, 1200.9 kPa	0.01584 ± 3e-05
273.24 K, 100.7 kPa	0.01659 ± 3e-05
273.24 K, 200.8 kPa	0.01661 ± 3e-05
273.24 K, 400.5 kPa	0.01664 ± 3e-05
273.24 K, 600.4 kPa	0.01667 ± 3e-05
273.24 K, 800.6 kPa	0.01671 ± 3e-05
273.24 K, 1000.6 kPa	0.01674 ± 3e-05
273.24 K, 1499.8 kPa	0.01685 ± 3e-05
298.24 K, 800.5 kPa	0.01785 ± 2.5e-05
298.25 K, 99.6 kPa	0.01776 ± 2.5e-05
298.25 K, 100.7 kPa	0.01777 ± 2.5e-05
298.25 K, 200.5 kPa	0.01778 ± 2.5e-05
298.25 K, 400.7 kPa	0.0178 ± 2.5e-05
298.25 K, 400.8 kPa	0.0178 ± 2.5e-05
298.25 K, 600.2 kPa	0.01783 ± 2.5e-05
298.25 K, 1000.1 kPa	0.01789 ± 2.5e-05
298.25 K, 1500.2 kPa	0.01799 ± 2.5e-05
323.26 K, 100.6 kPa	0.0189 ± 3.1e-05
323.26 K, 101.5 kPa	0.0189 ± 3.1e-05
323.26 K, 200.7 kPa	0.0189 ± 3.1e-05
323.26 K, 400.4 kPa	0.01893 ± 3.1e-05
323.26 K, 600.8 kPa	0.01896 ± 3.1e-05
323.26 K, 800.2 kPa	0.01896 ± 3.1e-05
323.26 K, 1000.6 kPa	0.01901 ± 3.1e-05
323.26 K, 1000.9 kPa	0.01901 ± 3.1e-05
323.27 K, 398.8 kPa	0.01893 ± 3.1e-05
323.27 K, 1501.9 kPa	0.01907 ± 3.1e-05
323.27 K, 1802.1 kPa	0.01913 ± 3.1e-05
373.29 K, 100.8 kPa	0.02102 ± 3.1e-05
373.29 K, 201.1 kPa	0.02104 ± 3.1e-05
373.29 K, 401 kPa	0.02106 ± 3.1e-05
373.29 K, 601 kPa	0.02107 ± 3.1e-05
373.29 K, 1000.3 kPa	0.02111 ± 3.1e-05
373.29 K, 1500.6 kPa	0.02118 ± 3.1e-05
373.29 K, 1807.2 kPa	0.02122 ± 3.1e-05
423.33 K, 100.9 kPa	0.02302 ± 3.4e-05
423.33 K, 200.9 kPa	0.02303 ± 3.4e-05
423.33 K, 400.7 kPa	0.02306 ± 3.4e-05
423.33 K, 600.6 kPa	0.02308 ± 3.4e-05
423.33 K, 1000.5 kPa	0.02311 ± 3.4e-05
423.33 K, 1500.2 kPa	0.02316 ± 3.4e-05
423.33 K, 1799.4 kPa	0.02319 ± 3.4e-05
473.38 K, 100.7 kPa	0.02494 ± 3.6e-05
473.38 K, 200.8 kPa	0.02495 ± 3.6e-05
473.38 K, 398.5 kPa	0.02496 ± 3.6e-05
473.38 K, 600.9 kPa	0.02497 ± 3.6e-05
473.38 K, 1000.7 kPa	0.02499 ± 3.6e-05
473.38 K, 1500.6 kPa	0.02503 ± 3.6e-05
473.38 K, 1799.3 kPa	0.02505 ± 3.6e-05
